Measurements: patent US20230391796A1, “GLYCOSIDASE INHIBITORS AND USES THEREOF” (UNIVERSIDAD DE SEVILLA (US) -UNIVERSITY OF SEVILLE (US), priority 2020, published 2023)
Structures can show the parent of a compound that is named as a salt.

Tests used:
hOGA = molecular target: T1, hOGA (Homo sapiens, UniProt O60502); assay: Inhibition assay against hOGA, resorufin N-acetyl-β-D-glucosaminide fluorescence; type: biochemical; conditions: 0.2 nM hOGA, 25 μM substrate, pH 7.1; Morrison Ki
T1 sequence (O60502 1-916): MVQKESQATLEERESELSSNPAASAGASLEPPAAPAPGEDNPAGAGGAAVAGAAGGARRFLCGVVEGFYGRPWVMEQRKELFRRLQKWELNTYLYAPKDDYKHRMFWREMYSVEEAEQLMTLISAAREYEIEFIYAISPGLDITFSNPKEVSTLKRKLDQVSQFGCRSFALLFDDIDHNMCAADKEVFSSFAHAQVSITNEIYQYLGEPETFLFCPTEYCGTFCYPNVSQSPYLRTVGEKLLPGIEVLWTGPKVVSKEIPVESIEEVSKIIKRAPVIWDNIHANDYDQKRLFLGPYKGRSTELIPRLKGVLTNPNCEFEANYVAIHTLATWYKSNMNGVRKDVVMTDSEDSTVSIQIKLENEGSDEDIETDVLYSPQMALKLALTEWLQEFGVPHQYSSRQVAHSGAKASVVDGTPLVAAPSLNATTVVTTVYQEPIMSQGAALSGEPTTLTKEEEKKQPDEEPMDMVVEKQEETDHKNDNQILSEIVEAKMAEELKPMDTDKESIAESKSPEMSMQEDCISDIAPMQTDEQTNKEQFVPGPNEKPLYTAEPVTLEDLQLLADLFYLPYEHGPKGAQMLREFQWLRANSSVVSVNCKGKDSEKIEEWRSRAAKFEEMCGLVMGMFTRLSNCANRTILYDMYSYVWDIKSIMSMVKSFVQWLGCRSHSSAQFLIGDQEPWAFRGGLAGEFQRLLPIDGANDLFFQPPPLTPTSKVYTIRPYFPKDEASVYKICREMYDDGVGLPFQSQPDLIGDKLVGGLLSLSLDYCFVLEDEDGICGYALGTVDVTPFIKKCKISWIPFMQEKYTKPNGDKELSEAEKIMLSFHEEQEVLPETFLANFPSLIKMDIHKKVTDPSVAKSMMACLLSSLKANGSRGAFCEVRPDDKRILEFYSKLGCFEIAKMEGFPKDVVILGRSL
Protocol: Inhibition Assays Against hOGA
Km=25 μM was measured with these conditions. Inhibition assays were run at 0.2 nM [hOGA] in the same buffer, in the presence or absence of various concentrations of inhibitors and at a fixed substrate concentration of 25 μM and 1% DMSO. First, inhibitor was serially diluted to the desired range of concentrations in 2% DMSO buffer. Next, 50 μL of inhibitor solutions at various concentrations in 2% DMSO Buffer was added to 50 μL of 0.8 nM enzyme and allowed to incubate at 25° C. for 5 minutes. 100 uL of 50 μM and 1% DMSO substrate was then added and reaction mixture was immediately mixed and aliquoted in 45 μL triplicates to a CORNING 384 well black plate. Fluorescence signal was measured continuously for 20 minutes at 37° C. in a BioTek Neo 2 Plate reader set at excitation and emission wavelengths of 572 and 610 nm, respectively. Max reaction rates for all inhibitor concentrations were calculated within Gen5 BioTek reader software. % Activity was subsequently calculated for each inhibitor concentration against the max reaction rate of uninhibited hOGA. GraphPad Prism 2016 was used to approximate the Morrison Ki values for each inhibitor.

[1] = molecular target: T2, Recombinant Human Hexosaminidase B (HexB) (Homo sapiens, UniProt P07686); assay: Inhibition assay against rhHexB, 4-methylumbelliferone N-acetyl-β-D-galactosaminide fluorescence; type: biochemical; conditions: 5 nM HexB, 150 μM substrate, pH 5.5; NI = no inhibition detected at 200 μM; read-out: hHexB
T2 construct: purchased R&D Systems 8907-GH-020
T2 sequence (P07686 122-556): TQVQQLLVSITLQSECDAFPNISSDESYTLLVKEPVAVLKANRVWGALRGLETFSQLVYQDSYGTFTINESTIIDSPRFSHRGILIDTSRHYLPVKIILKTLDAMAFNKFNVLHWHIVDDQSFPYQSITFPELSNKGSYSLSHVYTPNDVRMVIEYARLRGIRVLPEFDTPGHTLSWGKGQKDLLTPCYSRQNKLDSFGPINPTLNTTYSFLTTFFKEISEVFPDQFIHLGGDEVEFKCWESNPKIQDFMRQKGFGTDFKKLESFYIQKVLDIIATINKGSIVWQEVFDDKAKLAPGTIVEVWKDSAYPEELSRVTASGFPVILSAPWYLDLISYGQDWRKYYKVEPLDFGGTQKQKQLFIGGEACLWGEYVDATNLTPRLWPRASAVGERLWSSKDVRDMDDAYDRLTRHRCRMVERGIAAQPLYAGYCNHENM
Protocol: Inhibition Assays Against rhHexB
Inhibition constant (Ki) values for compounds against Recombinant Human Hexosaminidase B (HexB) enzyme, purchased from R&D Systems (cat# 8907-GH-020) are determined by measuring the change in fluorescent signal corresponding to the rate of hydrolytic activity against the commercially available artificial substrate, 4-Methylumbelliferone N-acetyl-β-D-galactosaminide. HexB activity assays were performed in a buffer 100 mM MES at pH 5.5 and 5 nM [HexB]. Inhibition assays were in the presence or absence of various concentrations of inhibitors and at a fixed substrate concentration of 150 μM and 1% DMSO. First, inhibitor was serially diluted to the desired range of concentrations in 2% DMSO buffer. Next, 50 μL, of inhibitor solutions at various concentrations in 2% DMSO Buffer was added to 50 μL of 20 nM enzyme and allowed to incubate at 25° C. for 5 minutes. 100 μL, of 300 μM and 1% DMSO substrate was then added and reaction mixture was immediately mixed and aliquoted in 45 μL triplicates to a CORNING 384 well black plate. Fluorescence signal was measured continuously for 20 minutes at 25° C. in a BioTek Neo 2 Plate reader set at excitation and emission wavelengths of 355 and 450 nm, respectively. Max reaction rates for all inhibitor concentrations were calculated within Gen5 BioTek reader software. % Activity was subsequently calculated for each inhibitor concentration against the max reaction rate of uninhibited HexB. GraphPad Prism 2016 was used to approximate the Morrison Ki values for each inhibitor.

| SMILES | Ki (hOGA) [nM] | Ki [1] [nM] |
| --- | --- | --- |
| CCC(=O)N[C@H]1CN2/C(=N/Cc3cccc4ccccc34)SC[C@@H]2[C@@H](O)[C@@H]1O [Compound 14, 2-Propionamido-5-N,6-S-(N′-1-naphthylmethyliminomethylidene)-1,2-dideoxy-6-thionojirimycin hydrochloride] | 0.701 | > 200000 |
| CCC(=O)N[C@H]1CN2/C(=N/Cc3ccc4[nH]ccc4c3)SC[C@@H]2[C@@H](O)[C@@H]1O [Compound 15, 2-Propionamido-5-N,6-S-(N′-5-indolylmethyliminomethylidene)-1,2-dideoxy-6-thionojirimycin hydrochloride] | 0.657 | > 200000 |
| CC(C)C(=O)N[C@H]1CN2/C(=N/Cc3ccccc3)SC[C@@H]2[C@@H](O)[C@@H]1O [Compound 16, 2-Isobutanamido-5-N,6-S-(N′-benzyliminomethylidene)-1,2-dideoxy-6-thionojirimycin Hydrochloride] | 888 | > 200000 |
| CCCNC(=S)N[C@H]1CN2/C(=N/Cc3ccccc3)SC[C@@H]2[C@@H](O)[C@@H]1O [Compound 19, 2-Propylthioureido-5-N,6-S-(N′-benzyliminomethylidene)-1,2-dideoxy-6-thionojirimycin] | 762 | > 200000 |

Further molecules by falling Ki (hOGA), results first:

| Ki (hOGA) [nM] | Ki [1] [nM] | SMILES |
| --- | --- | --- |
| 1060 | > 200000 | CCNC(=S)N[C@H]1CN2/C(=N/Cc3ccccc3)SC[C@@H]2[C@@H](O)[C@@H]1O [Compound 18, 2-Ethylthioureido-5-N,6-S-(N′-benzyliminomethylidene)-1,2-dideoxy-6-thionojirimycin] |
| 337 | > 200000 | CCCC(=O)N[C@H]1CN2/C(=N/Cc3ccccc3)SC[C@@H]2[C@@H](O)[C@@H]1O [Compound 17, 2-Butanamido-5-N,6-S-(N′-benzyliminomethylidene)-1,2-dideoxy-6-thionojirimycin] |
| 7.97 | > 200000 | CCC(=O)N[C@H]1CN2/C(=N/Cc3ccccc3)SC[C@@H]2[C@@H](O)[C@@H]1O [Compound 13, 2-Propanamido-5-N,6-S-(N′-benzyliminomethylidene)-1,2-dideoxy-6-thionojirimycin Hydrochloride] |
